From ChEMBL document CHEMBL1130443, “Enhanced DNA photocleavage and binding properties of sapphyrin-polyamine conjugates” (Bioorg Med Chem Lett, 1997)
Blank lines part the entries; values can stand above or below the compound they belong to.

Assays:
Assay type in all cases: nucleic-acid assay
[1] = tested on: Nucleic Acid; assay: Compound was measured for the inhibition of DNA cleavage against […] plasmid in the presence of 2M NaCl.
[2] = tested on: Nucleic Acid; assay: The C50 value refers to the concentration of compound required to displace 50% of the ethidium bromide from the DNA.; settings: Bos taurus
[3] = tested on: Nucleic Acid; assay: Compound was measured for the inhibition of DNA cleavage against […] plasmid in the presence of 0.2 M sodium dodecyl sulfate(SDS).
[4] = tested on: Nucleic Acid; assay: Compound was measured for the inhibition of DNA cleavage against […] plasmid in the presence of 0.2 M sodium dodecyl sulfate (SDS).

Compound: CCc1c(CC)c2cc3nc(cc4[nH]c(c(C)c4CC)c4[nH]c(cc5nc(cc1[nH]2)C(CCC(=O)NCCN(CCN)CCN)=C5C)c(CC)c4C)C(C)=C3CCC(=O)NCCN(CCN)CCN
- inhibition [1]: 93%
- C50 [2]: 0.114 µM
- inhibition [3]: 41%

Compound: NCCN(CCN)CCN
- C50 [2]: 28 µM

Compound: CCC1=C(CC)c2cc3[nH]c(cc4[nH]c(c(C)c4CC)c4[nH]c(cc5nc(cc1n2)C(CCC(=O)NCCOCCOCCN)=C5C)c(CC)c4C)c(C)c3CCC(=O)NCCOCCOCCN
- inhibition [1]: 66%
- C50 [2]: 0.062 µM
- inhibition [3]: 31%

The remaining lines, values ahead:

- inhibition [1]: 87%
- C50 [2]: 0.127 µM
- inhibition [3]: 47%
Compound: CCc1c(CC)c2cc3nc(cc4[nH]c(c(C)c4CC)c4[nH]c(cc5nc(cc1[nH]2)C(CCC(=O)NCCNCCN)=C5C)c(CC)c4C)C(C)=C3CCC(=O)NCCNCCN

- inhibition [4]: 100%
- inhibition [1]: 92%
- C50 [2]: 1.2 µM
Compound: CCc1c(CC)c2cc3nc(cc4[nH]c(c(C)c4CC)c4[nH]c(cc5nc(cc1[nH]2)C(CCC(=O)N(CCO)CCO)=C5C)c(CC)c4C)C(C)=C3CCC(=O)N(CCO)CCO
